Experimental data from article PMC10254897, “Development and Validation of a New LC-MS/MS Bioanalytical Method for the Simultaneous Determination of Levodopa, Levodopa Methyl Ester, and Carbidopa in Human Plasma Samples” (Molecules, 2023).

Test: Short-term, medium-term and autosampler stability in plasma samples and extracts
Format: physicochemical, human
Settings: for Stability in plasma samples at −40 °C (time stable): tested 2 weeks, 1 and 2 months
Protocol: Sample stability was measured at two concentration levels (LQC and HQC) in triplicate. Long-term stability was evaluated at −40 °C for 2 weeks, 1 and 2 months; short-term stability was evaluated at room temperature (rt) under light exposure and with light protection and at 4 °C (light protection) for 1, 2, 3, 4, and 7 days. Autosampler stability was also assessed by storing extracts in the autosampler compartment at 10 °C for 1, 2, 3, 4, and 7 days.
The mean concentration values obtained from each measurement were compared to the concentrations measured at T0 before storage. Stability data are expressed as percentual difference from T0.

[1] = plasma samples stored at −40 °C

Stability in plasma samples at −40 °C (time stable) [1] | SMILES | further results
up to 1 months | C[C@@](Cc1ccc(O)c(O)c1)(NN)C(=O)O [Carbidopa, carbidopa] | –
up to 2 months | N[C@@H](Cc1ccc(O)c(O)c1)C(=O)O [L-DOPA, Levodopa] | –
– | COC(=O)C(N)Cc1ccc(O)c(O)c1 (stereo not shown) [LDME, levodopa methyl ester] | Stability in plasma samples at −40 °C (in words) [1]: not satisfactory
– | NC(CO)C(=O)NNCc1ccc(O)c(O)c1O (stereo not shown) [benserazide] | Stability of the compound (in words) (method development, conditions not stated): severe stability issues
